Holding throughout (type): cell-based
In assay [1] the test system is E. coli DH5α. The assay is described as follows: E. coli DXR MIC experiment, parent strain. The settings on record: Escherichia coli, LB, overnight at 37° C., read-out: E. coli DXR MICs, E. coli DH5α. Here is the method:
(§1) The MIC protocol used techniques well known to those skilled in the art. All strains were grown overnight in LB with appropriate selection. The compounds are mixed or put in contact with DMSO. Fifty μl of LB was placed in each well of the microtiter plate, except in Column 1. To obtain a top concentration of 256 μl/mil of compound after the inoculum is added: 10 μl of a 5.12 mg/ml stock is mixed with 90 μl of LB. This mixture was placed in the first well of its assigned row of a 96-well plate. The compound was then serially diluted 1:2 by taking 50 μl from the first well in the row and mixing it with the second well of the same row, Column 2. Then, 50 μl from that well was mixed with the third well in the row, Column 3 and so on until Column 11. Fifty μl of the serial dilution from Column 11 was discarded. The final well in the row, column 12, was the growth control. No compound was placed in column 12. The overnight culture was diluted 1:50 into LB. Fifty μl of this culture dilution was added to every well of the microtiter plate. This dilutes the inoculum and drug 1:2. The final inoculum was approximately 1×10^5 cells/ml. The 96-well pates are then incubated overnight at 37° C.

Assay [2] concerns E. coli DH5α + (pET28). The assay is described as follows: E. coli DXR MIC experiment, empty vector strain. Particulars: Escherichia coli, LB, overnight at 37° C., read-out: E. coli DXR MICs, E. coli DH5α + (pET28). As to the method: as §1
Assay [3] concerns E. coli DH5α + (pET28::dxr), H. influenzae dxr. The assay is described as follows: H. influenzae DXR MIC experiment, strain expressing H. influenzae DXR. Here is the method:
as §1, with “Fifty μl of LB was placed in each well of the microtiter plate, except in Column 1. To obtain a top concentration of 256 μl/mil of compound after the inoculum is added: 10 μl of a 5.12 mg/ml stock is mixed with 90 μl of LB.” left out, “The overnight culture was diluted 1:50 into LB.” left out

For assay [4], the system named is E. coli DH5α + (pET28::dxr), E. coli dxr. The assay is described as follows: E. coli DXR MIC experiment, strain overexpressing E. coli DXR. As to the method:
as §1

Values after ≈ are worked out from the molar mass of the structure shown.

Turning to `CC1(C)S[C@@H]2[C@H](NC(=O)[C@H](N)c3ccc(O)cc3)C(=O)N2[C@H]1C(=O)O` [Amoxicillin], the MIC in assay [1] amounted to 16 µg/mL (≈ 43.8 µM).

Consider `O=CN(O)CCCP(=O)(O)O` [Fosmidomycin], for which the MIC in assay [2] was 16 µg/mL; in assay [1], 16 µg/mL (≈ 87.4 µM); in assay [3] (Escherichia coli, read-out: H. influenzae DXR MICs, E. coli DH5α + (pET28::dxr)), 256 µg/mL; in assay [4] (Escherichia coli, read-out: E. coli DXR MICs, E. coli DH5α + (pET28::dxr)), 128 µg/mL. In addition, the “MIC increase for cells expressing H. influenzae DXR” value in assay [3] (E. coli cells (DH5α) expressing H. influenzae DXR) was 16 fold. Further, the “MIC increase for cells overexpressing E. coli DXR” value in assay [4] (E. coli cells (DH5α) overexpressing E. coli DXR) amounted to 8 fold.

Values taken from US20030206892A1, “Methods of modulating activity of DXR” (priority 2000, published 2003).
